Laboratory results: ChEMBL document CHEMBL3525960, “Role of catechol-O-methyltransferase in the disposition of luteolin in rats” (Drug Metab Dispos, 2011)

Experiments:
Small intestine [1] = assay: Drug metabolism in Sprague-Dawley rat small intestine homogenate treated with luteolin at 20 uM after 20 to 60 mins in presence of COMT inhibitor entacapone; format: ADME, tissue-based; settings: tissue homogenate
Lung [2] = assay: Drug metabolism in Sprague-Dawley rat lung homogenate treated with luteolin at 20 uM after 20 to 60 mins; format: ADME, tissue-based; settings: tissue homogenate
[3] = AUC (0 to infinity) in Sprague-Dawley rat treated with luteolin at 6.5 mg/kg, iv; format: ADME, organism-based; set-up: time infinity, dose 6.5 mg/kg, route intravenous; settings: plasma
Small intestine [4] = assay: Drug metabolism in Sprague-Dawley rat small intestine homogenate treated with luteolin at 20 uM after 20 to 60 mins; format: ADME, tissue-based; settings: tissue homogenate
[5] = Drug metabolism in Sprague-Dawley rat erythrocytes homogenate treated with luteolin at 20 uM after 20 to 60 mins in presence of COMT inhibitor entacapone; format: ADME, cell-based; settings: erythrocyte
[6] = AUC (0 to t) in Sprague-Dawley rat treated with luteolin at 6.5 mg/kg, iv; format: ADME, organism-based; set-up: dose 6.5 mg/kg, route intravenous; settings: plasma
Lung [7] = assay: Drug metabolism in Sprague-Dawley rat lung homogenate treated with luteolin at 20 uM after 20 to 60 mins in presence of COMT inhibitor entacapone; format: ADME, tissue-based; settings: tissue homogenate
[8] = Volume of distribution in Sprague-Dawley rat treated with luteolin at 6.5 mg/kg, iv; format: ADME, organism-based; set-up: dose 6.5 mg/kg, route intravenous; settings: in vivo
[9] = Drug metabolism in Sprague-Dawley rat erythrocytes homogenate treated with luteolin at 20 uM after 20 to 60 mins; format: ADME, cell-based; settings: erythrocyte
Liver microsome = assay: Stability in Sprague-Dawley rat liver microsomes at 10 uM after 10 to 30 mins by HPLC analysis; format: ADME
Kidney [10] = assay: Drug metabolism in Sprague-Dawley rat kidney homogenate treated with luteolin at 20 uM after 20 to 60 mins in presence of COMT inhibitor entacapone; format: ADME, tissue-based; settings: tissue homogenate
[11] = Half life in Sprague-Dawley rat treated with luteolin at 6.5 mg/kg, iv; format: ADME, organism-based; set-up: dose 6.5 mg/kg, route intravenous; settings: in vivo
[12] = Drug excretion in Sprague-Dawley rat urine treated with luteolin at 6.5 mg/kg, iv after 24 hrs co-treated with COMT inhibitor entacapone; format: ADME, organism-based; set-up: dose 6.5 mg/kg, route intravenous; settings: read-out: Drug excretion
[13] = Mean residence time (0 to t) in Sprague-Dawley rat treated with luteolin at 6.5 mg/kg, iv; format: ADME, organism-based; set-up: dose 6.5 mg/kg, route intravenous; settings: in vivo
[14] = Drug recovery in Sprague-Dawley rat urine assessed as retention time treated with luteolin at 6.5 mg/kg, iv by reverse-phase HPLC method; format: ADME, organism-based; set-up: dose 6.5 mg/kg, route intravenous; settings: in vivo
Liver [15] = assay: Drug metabolism in Sprague-Dawley rat liver homogenate treated with luteolin at 20 uM after 20 to 60 mins; format: ADME, tissue-based; settings: tissue homogenate
Liver [16] = assay: Drug metabolism in Sprague-Dawley rat liver homogenate treated with luteolin at 20 uM after 20 to 60 mins in presence of COMT inhibitor entacapone; format: ADME, tissue-based; settings: tissue homogenate
[17] = Mean residence time (0 to infinity) in Sprague-Dawley rat treated with luteolin at 6.5 mg/kg, iv; format: ADME, organism-based; set-up: dose 6.5 mg/kg, route intravenous; settings: in vivo
Kidney [18] = assay: Drug metabolism in Sprague-Dawley rat kidney homogenate treated with luteolin at 20 uM after 20 to 60 mins; format: ADME, tissue-based; settings: tissue homogenate
[19] = Cmax in Sprague-Dawley rat treated with luteolin at 6.5 mg/kg, iv; format: ADME, organism-based; set-up: dose 6.5 mg/kg, route intravenous; settings: in vivo
[20] = Drug excretion in Sprague-Dawley rat urine treated with luteolin at 6.5 mg/kg, iv after 24 hrs; format: ADME, organism-based; set-up: dose 6.5 mg/kg, route intravenous; settings: read-out: Drug excretion
Rattus norvegicus = assay: Clearance in Sprague-Dawley rat treated with luteolin at 6.5 mg/kg, iv; format: ADME, organism-based; set-up: dose 6.5 mg/kg, route intravenous; settings: in vivo

Drug metabolism (Small intestine [1]): metabolite_not_detected
Drug metabolism (Lung [2]): metabolite_detected
AUC(0-inf) [3]: 2280 ng·h/mL
Drug metabolism (Small intestine [4]): metabolite_detected
Drug metabolism [5]: metabolite_not_detected
AUC(0-t) [6]: 2090 ng·h/mL
Drug metabolism (Lung [7]): metabolite_not_detected
Vd [8]: 6.34 L/kg
Drug metabolism [9]: metabolite_detected
Stability (Liver microsome): Unstable
Drug metabolism (Kidney [10]): metabolite_not_detected
half-life [11]: 1.57 h
dose excreted at 24 h [12]: 0.451%
MRT last [13]: 1.24 h
Retention_time [14]: 29.35 min
Drug metabolism (Liver [15]): metabolite_detected
Drug metabolism (Liver [16]): metabolite_not_detected
MRT inf [17]: 1.76 h
Drug metabolism (Kidney [18]): metabolite_detected
Cmax [19]: 2060 ng/mL
dose excreted at 24 h [20]: 1.92%
clearance (Rattus norvegicus): 49 mL/min/kg
SMILES: COc1cc(-c2cc(=O)c3c(O)cc(O)cc3o2)ccc1O [CHRYSOERIOL]
